Broadly, the IC50 is the concentration needed to halve the response being measured.

The experiment deals with P. Falciparum 3D7. The experiment can be described thus: SYBR Green I growth inhibition assay, 3D7 strain. Particulars: Plasmodium falciparum, 3D7, 72 h, read-out: P. Falciparum 3D7 IC50. Type of experiment: cell-based.

For the molecule `CCN(CC)CCCC(C)Nc1ccnc2cc(Cl)ccc12` (stereo not shown) [Chloroquine, chloroquine], the IC50 was 52 ± 12 nM.

These data come from paper PMC5443346 (Bioorganic & medicinal chemistry, 2017).
